Entries after “also recorded” stand apart in the source; their conditions may differ.
How the values were obtained:
[1] = target: T1, bovine cytochrome bc (Bos taurus, UniProt P00157); assay: Binding assays with bovine cytochrome bc1
T1 construct: Whole bovine heart was collected directly from slaughter and transported on ice to the cold room; from tissue; host or cells: bovine heart mitochondria, DDM-solubilised, column-purified

[2] = target: hERG (Homo sapiens, UniProt Q12809); assay: hERG profile
Chain of hERG (Q12809 whole entry): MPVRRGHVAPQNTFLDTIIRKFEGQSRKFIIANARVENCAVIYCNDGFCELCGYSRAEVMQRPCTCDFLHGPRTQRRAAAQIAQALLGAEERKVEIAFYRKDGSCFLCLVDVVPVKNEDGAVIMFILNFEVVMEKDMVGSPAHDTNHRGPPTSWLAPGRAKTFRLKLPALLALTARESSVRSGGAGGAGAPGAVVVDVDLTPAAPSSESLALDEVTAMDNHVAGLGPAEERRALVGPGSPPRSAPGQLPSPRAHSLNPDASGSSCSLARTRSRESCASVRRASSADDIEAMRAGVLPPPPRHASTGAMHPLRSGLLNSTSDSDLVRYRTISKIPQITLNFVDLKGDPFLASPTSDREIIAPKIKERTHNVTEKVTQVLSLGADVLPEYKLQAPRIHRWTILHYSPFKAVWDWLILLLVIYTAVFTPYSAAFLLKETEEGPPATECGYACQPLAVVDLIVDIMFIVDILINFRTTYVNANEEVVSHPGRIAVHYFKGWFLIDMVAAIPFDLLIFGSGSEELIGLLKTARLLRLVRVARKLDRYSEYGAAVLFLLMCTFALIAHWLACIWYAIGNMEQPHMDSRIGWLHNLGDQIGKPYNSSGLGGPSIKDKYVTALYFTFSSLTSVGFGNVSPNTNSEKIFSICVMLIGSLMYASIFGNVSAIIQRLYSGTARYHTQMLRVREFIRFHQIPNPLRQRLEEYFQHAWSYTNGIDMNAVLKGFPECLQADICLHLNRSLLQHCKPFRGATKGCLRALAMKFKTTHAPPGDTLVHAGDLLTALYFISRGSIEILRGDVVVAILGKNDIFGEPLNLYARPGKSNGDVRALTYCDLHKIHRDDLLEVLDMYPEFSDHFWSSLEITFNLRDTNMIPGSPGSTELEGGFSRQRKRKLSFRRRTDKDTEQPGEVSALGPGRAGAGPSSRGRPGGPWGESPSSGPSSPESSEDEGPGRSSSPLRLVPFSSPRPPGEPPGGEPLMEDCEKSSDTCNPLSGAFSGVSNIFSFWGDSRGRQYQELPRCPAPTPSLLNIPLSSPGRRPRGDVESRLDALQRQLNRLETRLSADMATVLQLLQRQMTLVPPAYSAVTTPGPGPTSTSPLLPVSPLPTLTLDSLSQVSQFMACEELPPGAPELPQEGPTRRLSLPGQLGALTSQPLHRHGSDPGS

[3] = system: RH-YFP; assay: Assessment of compound degradation and microbicidal effect on Toxoplasma; type: cell-based, Toxoplasma gondii
Description: HFF were cultured in a 96-well plate and infected with RH-YFP as described above on Day 0, 20 μL of compound was added to 9 wells for each compound and concentration (3 conditions, 3 wells per condition). In condition I, media was removed and replaced with fresh media on Day 3. In condition II, media was removed and replaced with fresh media and more compound on Day 3. In condition III, media was not replaced on Day 3, nor was the compound refreshed. On Day 6, media was removed and replaced with clean media in all wells. On Day 3, 6, and 9 plate was read in the fluorimeter and analyzed graphically in Prism (GraphPad Software).

[4] = system: T. gondii RH and Prugniaud strain tachyzoites; assay: Tachyzoite infection in mice; type: in vivo, Toxoplasma gondii; conditions: for efficacy against Prugniaud (Type 2) tachyzoites in mice: 25 mg/kg daily
Description: Ability of compounds to abrogate tachyzoites multiplication was assessed using an in vivo imaging system (IVIS). To facilitate this we have T. gondii strains from each of the 3 major lineages expressing the luciferase gene. In these studies mice are injected intraperitoneally with tachyzoites and parasite proliferation followed up to 30 days post infection. Removal of brains at 30 days allows parasite quantitation by bioluminescence ex vivo using the IVIS. As an alternative method to improve screening efficiency and scalability it is possible for initial screening to use zebrafish with histopathology and visualization as shown in FIG. 6. Quantitation also was performed using QT PCR as described for mice or in translucent Casper zebrafish with parasites with fluors or luciferase to screen rapidly. Tachyzoites and bradyzoites in cysts were used for IP infection and compounds given intraperitoneally.
To test type II parasites, we used T. gondii Me49 and Prugneaud parasites^S39.

[5] = system: Dd2 parasites; assay: Isobologram drug combination assay (fixed ratio, FIC); type: cell-based, Plasmodium falciparum; conditions: Dd2, fixed ratios
Description: Isobologram experiments were performed in similar fashion utilizing the modified fixed ratio methodology. Briefly, MJM170 and either atovaquone or cycloguanil or BRD6323 were mixed at multiple fixed volumetric ratios (10:0, 8:2, 6:4, 4:6, 2:8, and 0:10) and then serially diluted in 12-point 2-fold dilutions and dispensed in triplicate to 384-well assay plates and replicated on three different days. EC50 values were calculated as above, and FICs were calculated for each drug combination as described^S76. Synergy was defined as an FIC <1.0, additivity as FIC=1.0, and antagonism as FIC >1.0.

[6] = system: P. falciparum Dd2; assay: SYBR Green drug sensitivity of Dd2 and cytochrome b / scDHODH lines; type: cell-based, Plasmodium falciparum
Description: We used the following parasite line from the MR4 repository of the American Type Culture Collection (ATCC): Dd2 (MRA-156). Mutant Dd2 parasites harboring a G33A or G33V substitution in cytochrome b were as reported. Dd2 parasites with a G131 S mutation in cytochrome b and transgenic lines expressing a chromosomally integrated copy of the S. cerevisiae DHODH were utilized as previously described. Parasites were cultured by standard methods in RPMI media supplemented with 5% human O^+ serum and 0.25% AlbuMAX® II (Life Technologies 11021-045).
Drug susceptibility was measured using the SYBR Green method. Twelve point curves based on 2-fold dilutions of the test compound were carried out in triplicate each day and replicated on at least three different days. EC50 values were calculated using a nonlinear regression curve fit in Prism 6.0 for Mac (GraphPad Software, Inc.).

| Structure (SMILES) | inhibition of bovine Cytbc1 [1] | binding affinity to bovine cytochrome bc ([1]; in comparison with previous compounds) | hERG profile [2] | compound degradation over time ([3]; 6-day exposure in culture) | microbicidal effect ([3]; RH-YFP, media replaced) | efficacy against Prugniaud (Type 2) tachyzoites in mice [4] | efficacy against RH tachyzoites in mice ([4]; 25 mg/kg daily intraperitoneally, RH-YFP) | efficacy against Prugniaud (Type 2) tachyzoites in mice ([4]; listed as MJM 170) | toxicity in mice ([4]; 25 mg/kg for 5 days) | combination effect with BRD6323 [5] | combination effect with atovaquone [5] | combination effect with cycloguanil [5] | cross-resistance in cytochrome b drug-resistant mutant lines ([6]; Dd2 G33A and Dd2 G33V) | EC50 ([6]; Plasmodium falciparum, DD2) [nM] | inhibition of parasite supplemented with yeast cytosolic DHODH ([6]; scDHODH line) |
| --- | --- | --- | --- | --- | --- | --- | --- | --- | --- | --- | --- | --- | --- | --- | --- |
| Cc1[nH]c2c(c(=O)c1-c1ccc(Oc3ccc(OC(F)(F)F)cc3)cc1)CCCC2 [JAG21, 2-methyl-3-(4-(4-(trifluoromethoxy)phenoxy)phenyl)-5,6,7,8-tetrahydroquinolin-4(1H)-one] | but not fully | lower binding affinity | clean | did not appear that the compound was being degraded over time | Neither compound was found to be microbicidal |  |  |  |  |  |  |  |  |  |  |
| Cc1[nH]c2c(c(=O)c1-c1ccc(Oc3ccccc3)cc1)CCCC2 [MJM170] |  |  |  |  |  | highly efficacious | highly efficacious; also recorded: eliminates active infection | reduces Type 2 parasites | without toxicity | Antagonism | modest synergy; also recorded: modestly synergistic; also recorded: Slight synergy | additive effect | without cross-resistance | 29.5 | cannot inhibit |

— US11414385B2, “Compounds and methods for treating, detecting, and identifying compounds to treat apicomplexan parasitic diseases” (The University of Chicago, priority 2015, dated 2022)
